Source: paper PMC6591177, “Small Molecule IL-36γ Antagonist as a Novel Therapeutic Approach for Plaque Psoriasis” (Scientific Reports, 2019)

Tests used:
[1] = system: human IL-36γ evoked CXCL1 release from Human HaCaT cells; assay: human IL-36γ evoked CXCL1 release, human HaCaT cells; format: cell-based; conditions: ± S.D.
Protocol: The immortalized human keratinocyte cell line HaCaT and mouse fibroblast NIH-3T3 cell line were maintained in culture in DMEM with 10% fetal bovine serum and 1% penicillin/streptomycin added (Sigma). Cells were seeded in 96-well tissue culture plates (Corning) at 25,000 cells per well and allowed to adhere and recover overnight at 37 °C in an incubator. Cells were rinsed with PBS (Sigma) and treated with cytokines diluted in 200 μL/well of the medium (DMEM with 0.5% FBS and 1% penicillin/streptomycin) as indicated. In inhibition mode, the agonist concentration used was at the EC80 for chemokine production and the cells were pre-treated with inhibitors for 30 min prior to adding the agonist. After 24 h of treatment, supernatants were collected and IL-8 and CXCL1[28] levels were assessed using a custom immunoassay (Meso Scale Discovery). EC50/IC50 values were estimated from a four-parameter logistic fit using Prism software (GraphPad).

human IL-36γ = target: T1, human IL-36γ (Homo sapiens, UniProt Q9NZH8); assay: Thermal shift assay, human IL-36γ; format: binding; conditions: 100 μM compound; read-out: increase of melting temperature of human IL-36γ
T1 construct: His6-SUMO-human IL-36γ (18–169); His6-SUMO (N, cleaved yes); made in house; host or cells: E. coli BL21 (DE3)
T1 sequence (Q9NZH8 18-169): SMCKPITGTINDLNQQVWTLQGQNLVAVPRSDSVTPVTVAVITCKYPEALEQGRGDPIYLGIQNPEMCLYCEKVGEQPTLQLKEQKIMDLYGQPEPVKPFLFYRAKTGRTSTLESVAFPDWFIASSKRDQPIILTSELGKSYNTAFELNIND
Protocol: Thermal shift assays[30] were performed on a Roche LightCycler 480 instrument using Sypro Orange Dye (Invitrogen). Reactions consisted of 0.5–2 µM purified recombinant protein in PBS, pH 7.4, a 1/500 dilution of the stock Sypro Orange reagent, and 100 µM test compounds, resulting in a final DMSO concentration of 1%. The samples were heated from 20 °C to 95 °C at a rate of 0.25 °C per second.

[2] = system: human IL-36γ induced plasma CXCL1; assay: hIL-36γ induced CXCL1 release in mouse plasma; format: in vivo; conditions: C57BL/6 mice, compounds 10, 30 and 100 mg/kg p.o.; antibody i.p.
Description: Female C57BL/6 mice (9–10 weeks old, 19–23 g) were purchased from Charles River Laboratories. All animal procedures were approved by AbbVie’s Institutional Animal Care and Use Committee (IACUC) and performed in accordance with the relevant IACUC guidelines and regulations. To examine engagement of human IL-36γ with antagonists under in vivo conditions, a mouse acute CXCL1 release assay was established which was similar to one previously reported. Plasma CXCL1 secretion was induced by subcutaneous injection of 2 μg human IL-36γ (in 100 μL PBS) into C57BL/6 mice. Blood was withdrawn via cardiac puncture 2 h after the challenge with IL-36γ. A-552 and A-553 were dosed at 10, 30 and 100 mg/kg p.o. 45 min before IL-36γ challenge. Anti-IL36R antibodies were dosed i.p. at 24 hours before IL-36γ challenge. Plasma CXCL1 levels were analyzed using MSD V-PLEX kit.

[3] = system: 3D human skin equivalents; assay: IL-36γ induced 3D skin equivalent model; format: cell-based
Protocol: Hematoxylin & eosin (H&E) staining and immunohistochemistry (IHC) were performed using a Leica ST5010 autostainer or Leica Bond RX automated immunostainer. Standardized IHC protocols were used for anti-loricrin staining (Abcam AB85679). Stained tissue slides were digitized for image analysis using a Perkin Elmer P250 whole slide digital pathology slide scanner with 20X objective and extended focus scanning parameters. For quantitative analysis, N = 3 raft samples were analyzed per condition for each stain using whole slide digital analysis software (Indica Labs HALO). Staining was normalized to the length of the raft sample analyzed.
3D skin equivalents (SOR-300-FT-CTR) comprised of human neonatal keratinocytes and fibroblasts were purchased from MatTek, equilibrated for one day in proprietary formulated media (SOR-300-FT-CTR-MM) and then treated as indicated. Treatment groups contained hIL-36γ at 300 ng/mL, 10 μM of A-552, 10 μg/mL anti-IL36R antibody, 10 μg/mL IL-36RA, or 10 μg/mL IgG isotype control either alone or in combination with hIL-36γ. Control skin equivalents were treated with media only. Skin equivalents were treated for three days, with media collected for cytokine release studies at day two and replaced with fresh treatment media. After three days the skin equivalents were either placed in 10% neutral buffered formalin solution (for histology) or frozen (for qRT-PCR).
To measure IL-6, IL-8 and CXCL1 release from 3D skin equivalents diluted sample media collected at day 2 of the treatment (see above) was used in conjunction with V-PLEX multiplex immunoassay for IL-6 and IL-8 and a U-PLEX immunoassay for CXCL1 (Meso Scale Discovery) according to the manufacturers’ protocols.
RNA from frozen 3D skin equivalents was isolated using miRNeasy Mini Kit (Qiagen) per the manufacturers’ instructions. For qRT-PCR determination a CFX384 Real-Time System C1000 Touch Thermocycler was used. […] Each transcript measured was presented as a fold change compared to control using the ∆∆CT method as RNA fold increase where RPLP0 was used as a housekeeping gene.

mouse IL-36γ = target: T2, mouse IL-36γ (Mus musculus, UniProt Q8R460); assay: Affinity for mouse IL-36γ; format: binding
T2 sequence (Q8R460 13-164): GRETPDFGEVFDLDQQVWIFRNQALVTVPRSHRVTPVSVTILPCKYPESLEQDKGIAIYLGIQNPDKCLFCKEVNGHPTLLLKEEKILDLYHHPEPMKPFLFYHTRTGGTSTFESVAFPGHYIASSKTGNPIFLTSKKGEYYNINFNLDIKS

human IL-36β = target: T3, human IL-36β (Homo sapiens, UniProt Q9NZH7); assay: Affinity for human IL-36β; format: binding
T3 sequence (Q9NZH7 5-164): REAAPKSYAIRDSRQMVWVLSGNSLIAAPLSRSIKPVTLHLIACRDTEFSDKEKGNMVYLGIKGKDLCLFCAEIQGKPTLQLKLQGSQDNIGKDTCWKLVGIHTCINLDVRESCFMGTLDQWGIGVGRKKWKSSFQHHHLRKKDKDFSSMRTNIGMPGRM

[4] = Drug plasma levels / oral exposure in mice; conditions: mouse, in vivo

For COC(c1ccccc1)(c1ccccc1)[C@H](Oc1nc(C)cc(-c2ccc(C)c(N)c2)n1)C(=O)O [Compound A-552], the Ki [1] was 31 ± 22 nM, the ΔTm at 100 µM (human IL-36γ) was 6.1 °C and the “effect on hIL-36γ induced plasma CXCL1 release (in words)” value [2] was “robustly attenuated CXCL1 levels in plasma in a dose-dependent manner”. For the same compound, the “effect on hIL-36γ induced changes in morphology, gene expression and cytokine production” value ([3]; 0.3 μg/mL hIL-36γ, 10 μM A-552, 10 μg/mL antibody or IL-36Ra, three days) was “attenuated”, the “effect on 3D human skin equivalents when treated alone” value ([3]; without hIL-36γ) was “no appreciable effect” and the “affinity for mouse IL-36γ” value (mouse IL-36γ) was “does not show affinity”. The “affinity for human IL-36β” value (human IL-36β) was “does not show affinity” and the oral bioavailability [4] was “orally bioavailable”.
